From PubChem BioAssay (NCI)
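1) Cells in 96-well plates. 2) Compound, 48 h, 5 concentrations. 3) Linear interpolation between surrounding doses. 4) Unreached endpoint = highest concentration. Here, GI50 denotes the concentration required for 50% inhibition of growth. TGI: concentration producing complete growth inhibition.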

How the values were obtained:
Test in all cases: NCI-60 cell line screen, 48 h
786-0 renal = system: 786-0 renal
HCC-2998 colon = system: HCC-2998 colon
PC-3 prostate = system: PC-3 prostate
HCT-15 colon = system: HCT-15 colon
OVCAR-4 ovarian = system: OVCAR-4 ovarian
EKVX NSCLC = system: EKVX NSCLC
CAKI-1 renal = system: CAKI-1 renal
SK-MEL-5 melanoma = system: SK-MEL-5 melanoma
DU-145 prostate = system: DU-145 prostate
SK-OV-3 ovarian = system: SK-OV-3 ovarian

| Compound | TGI (786-0 renal) | TGI (HCC-2998 colon) | TGI (PC-3 prostate) | TGI (HCT-15 colon) | TGI (OVCAR-4 ovarian) | TGI (EKVX NSCLC) | TGI (CAKI-1 renal) | TGI (SK-MEL-5 melanoma) | TGI (DU-145 prostate) | TGI (SK-OV-3 ovarian) | GI50 (HCC-2998 colon) | GI50 (PC-3 prostate) | GI50 (HCT-15 colon) | GI50 (OVCAR-4 ovarian) | GI50 (EKVX NSCLC) | GI50 (CAKI-1 renal) | GI50 (SK-MEL-5 melanoma) | GI50 (DU-145 prostate) |
| --- | --- | --- | --- | --- | --- | --- | --- | --- | --- | --- | --- | --- | --- | --- | --- | --- | --- | --- |
| COC(=O)c1c(OC(C)=O)ccc2c1c1c(OC(C)=O)c3ccccc3c(OC(C)=O)c1n2Cc1cc(OC)cc(OC)c1 | > 100 µM | 10.9 µM | > 100 µM | > 100 µM | > 100 µM | 26.7 µM | > 100 µM | 24.3 µM | > 100 µM | 57.8 µM | – | – | – | – | – | – | – | – |
| COCn1c(C)c(C)c2c(=O)oc(=O)[nH]c21 | > 100 µM | > 100 µM | > 100 µM | > 100 µM | > 100 µM | > 100 µM | > 100 µM | > 100 µM | > 100 µM | > 100 µM | – | – | – | – | – | – | – | – |
| Cc1oc2nc1C(=O)NCc1nc(cs1)C(=O)N[C@H](C(C)C)c1nc(cs1)C(=O)N[C@H]2C | > 100 µM | > 100 µM | > 100 µM | > 100 µM | > 100 µM | > 100 µM | > 100 µM | > 100 µM | > 100 µM | > 100 µM | – | – | – | – | – | – | – | – |
| Nc1ccc2c(c1)C1Oc3ccccc3CC1CO2 (stereo unspecified) | > 100 µM | > 100 µM | > 100 µM | 35.6 µM | – | > 100 µM | > 100 µM | > 100 µM | > 100 µM | > 100 µM | – | – | – | – | – | – | – | – |
| Cc1cc(O)c(C(C)C)cc1NC(=O)Nc1cccc2ccccc12 | 34.6 µM | 41 µM | 29.2 µM | 69.1 µM | 24.4 µM | 62.7 µM | 30.7 µM | 27.4 µM | 28.3 µM | – | – | – | – | – | – | – | – | – |
| CCCCC/C=C1/CC(CO)(COC(=O)CC(C(C)C)C(C)C)OC1=O (stereo unspecified) | 22.3 µM | 35.2 µM | 24.6 µM | 33.6 µM | 41.8 µM | 31.5 µM | 23.1 µM | 21.5 µM | 27.8 µM | 40.4 µM | – | – | – | – | – | – | – | – |
| C=CCNC1=C2C[C@@H](C)C[C@@H](OC)C(OC(=O)CCCN(C)C)[C@H](C)/C=C(\C)[C@@H](OC(N)=O)[C@H](OC)/C=C\C=C(/C)C(=O)NC(=CC1=O)C2=O (stereo partly specified) | 24.8 µM | 17.6 µM | 17.2 µM | 19.4 µM | 26.3 µM | 26.1 µM | 25.2 µM | 8.73 µM | 18.1 µM | 12.6 µM | – | – | – | – | – | – | – | – |
| COc1ccc2oc(S(=O)(=O)N3CC(CCl)c4ccc([N+](=O)[O-])cc43)cc2c1 (stereo unspecified) | 5.47 µM | 2.62 µM | 11.5 µM | 3.3 µM | > 100 µM | 48.8 µM | 0.239 µM | 5.45 µM | 0.317 µM | 4.83 µM | – | – | – | – | – | – | – | – |
| CCOC(=O)C1=CN=C2C(=O)N(c3ccccc3)N(C)C2(C)C1=N (stereo unspecified) | > 100 µM | > 100 µM | > 100 µM | > 100 µM | > 100 µM | > 100 µM | > 100 µM | > 100 µM | > 100 µM | > 100 µM | – | – | – | – | – | – | – | – |
| C(=N\Nc1ncc(-c2cc3cc4c(cc3o2)OCO4)s1)/c1c[nH]c2ccccc12 | – | 5.13 µM | 6.2 µM | 3.25 µM | 4.1 µM | 6.44 µM | 3.21 µM | 3.23 µM | 3.31 µM | – | 2.06 µM | 0.519 µM | 1.14 µM | 0.503 µM | 1.27 µM | 1.18 µM | 1.66 µM | 0.739 µM |
| CCNC(=S)N/N=C/c1cc(OC)ccc1O | > 100 µM | > 100 µM | > 100 µM | > 100 µM | > 100 µM | > 100 µM | – | > 100 µM | > 100 µM | > 100 µM | – | – | – | – | – | – | – | – |
| NNC(=O)CC(=O)Nc1ccc(Cl)cc1 | > 100 µM | > 100 µM | > 100 µM | > 100 µM | > 100 µM | > 100 µM | > 100 µM | > 100 µM | > 100 µM | > 100 µM | – | – | – | – | – | – | – | – |
| CC1(C)C2CCC1(CS(=O)(=O)Nc1ccccc1)C(=O)C2 (stereo unspecified) | > 100 µM | > 100 µM | > 100 µM | > 100 µM | > 100 µM | > 100 µM | > 100 µM | > 100 µM | > 100 µM | > 100 µM | – | – | – | – | – | – | – | – |
| CCCC(Sc1nc(N)nc2nc[nH]c12)C(=O)O (stereo unspecified) | > 100 µM | 76.9 µM | > 100 µM | > 100 µM | > 100 µM | – | > 100 µM | > 100 µM | > 100 µM | > 100 µM | – | – | – | – | – | – | – | – |
| COc1cc(C2c3cc4c(cc3C(O)C3CCC(=O)N23)OCO4)cc(OC)c1OC (stereo unspecified) | > 100 µM | > 100 µM | > 100 µM | > 100 µM | – | > 100 µM | > 100 µM | > 100 µM | > 100 µM | > 100 µM | – | – | – | – | – | – | – | – |
